These results are taken from patent publication US8377974B2 (Millennium Pharmaceuticals, Inc., priority 2004, dated 2013).

Some results are limits rather than exact numbers.

For orientation: IC50 means the midpoint of a concentration-inhibition curve.

T1 sequence (P00742 235-488 limits assumed): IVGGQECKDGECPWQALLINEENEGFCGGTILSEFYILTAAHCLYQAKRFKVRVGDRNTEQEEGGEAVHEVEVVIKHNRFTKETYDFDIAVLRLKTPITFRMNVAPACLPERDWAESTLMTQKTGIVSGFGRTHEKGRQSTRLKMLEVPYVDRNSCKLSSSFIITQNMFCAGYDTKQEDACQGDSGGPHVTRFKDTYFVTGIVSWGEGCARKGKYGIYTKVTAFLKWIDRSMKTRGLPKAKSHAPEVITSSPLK
T1 sequence (P00742 41-179 partner limits assumed): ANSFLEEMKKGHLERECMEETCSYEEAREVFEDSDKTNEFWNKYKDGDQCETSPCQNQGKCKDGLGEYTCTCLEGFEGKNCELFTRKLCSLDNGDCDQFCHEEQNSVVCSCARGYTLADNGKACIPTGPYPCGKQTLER

This test addresses T1, human plasma protein factor Xa (Homo sapiens, UniProt P00742).
T1 construct: measure proteolytic activity of the enzyme (factor Xa); purchased Haematologic Technologies (Essex Junction, Vt.); host or cells: human plasma
Put plainly: Factor Xa IC50 determination: cleavage of paranitroanilide substrate S-2765 in 96-well plates. The class given is biochemical. The following applies: fXa 1 nM, S-2765 100 μM, Tris buffered saline pH 7.4, room temperature. In short, it runs like this:
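Human plasma factor Xa (1 nM) preincubated 5 min at room temperature with inhibitor (0.01 nM–10 μM final) in Tris-buffered saline pH 7.4 with 5 mM CaCl2, 0.1% BSA, 5% DMSO. S-2765 at 100 μM final; hydrolysis at 405 nm over 2 min. IC50 from 4-parameter fit of initial velocities.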
Turning to `O=C(NCC1CC(c2ccc(-c3ccccc3Cl)cc2)=NO1)c1ccc(Cl)s1` (stereo not shown) [Example 184, 5-Chloro-thiophene-2-carboxylic acid [3-(2′-chloro-biphenyl-4-yl)-4,5-dihydro-isoxazol-5-ylmethyl]-amide], the IC50 is not below 500 nM.

Regarding `CSc1ccccc1-c1ccc(C2=NOC(CNC(=O)c3ccc(Cl)s3)C2)cc1` (stereo not shown) [Example 185, 5-Chloro-thiophene-2-carboxylic acid [3-(2′-methylsulfanyl-biphenyl-4-yl)-4,5-dihydro-isoxazol-5-ylmethyl]-amide], the 50% inhibitory concentration (IC50) is not below 500 nM.

On to `Nc1ccccc1-c1ccc(C2=NOC(CNC(=O)c3ccc(Cl)s3)C2)cc1` (stereo not shown) [Example 186, 5-Chloro-thiophene-2-carboxylic acid [3-(2′-amino-biphenyl-4-yl)-4,5-dihydro-isoxazol-5-ylmethyl]-amide], for which the IC50 was 100 to 500 nM.

For the molecule `O=C(NCC1CC(c2ccc(-c3ccccc3C(F)(F)F)cc2)=NO1)c1ccc(Cl)s1` (stereo not shown) [Example 187, 5-Chloro-thiophene-2-carboxylic acid [3-(2′-trifluoromethyl-biphenyl-4-yl)-4,5-dihydro-isoxazol-5-ylmethyl]-amide], the IC50 was 100 to 500 nM.

As for `COc1ccccc1-c1ccc(C2=NOC(CNC(=O)c3ccc(Cl)s3)C2)cc1` (stereo not shown) [Example 188, 5-Chloro-thiophene-2-carboxylic acid [3-(2′-methoxy-biphenyl-4-yl)-4,5-dihydro-isoxazol-5-ylmethyl]-amide], the IC50 lay in the range of 100 to 500 nM.

Take `COCc1ccccc1-c1ccc(-c2cc(CNC(=O)c3ccc(Cl)s3)on2)cc1` [Example 189, 5-Chloro-thiophene-2-carboxylic acid [3-(2′-methoxymethyl-biphenyl-4-yl)-isoxazol-5-ylmethyl]-amide]: the IC50 fell in the range of 100 to 500 nM.

Regarding `O=C(NCC1CC(c2ccc(-c3cccnc3)cc2)=NO1)c1ccc(Cl)s1` (stereo not shown) [Example 190, 5-Chloro-thiophene-2-carboxylic acid [3-(4-pyridin-3-yl-phenyl)-4,5-dihydro-isoxazol-5-ylmethyl]-amide], the IC50 fell in the range of 100 to 500 nM.

`O=C(NCC1CC(c2ccc(-c3ccncc3)cc2)=NO1)c1ccc(Cl)s1` (stereo not shown) [Example 191, 5-Chloro-thiophene-2-carboxylic acid [3-(4-pyridin-4-yl-phenyl)-4,5-dihydro-isoxazol-5-ylmethyl]-amide] yielded an IC50 not below 500 nM.

In turn, `O=C(NCc1cc(-c2ccc(-c3cccnc3)cc2)no1)c1ccc(Cl)s1` [Example 192, 5-Chloro-thiophene-2-carboxylic acid [3-(4-pyridin-3-yl-phenyl)-isoxazol-5-ylmethyl]-amide] gave an IC50 not below 500 nM.

In the case of `O=C(NCc1cc(-c2ccc(-c3ccncc3)cc2)no1)c1ccc(Cl)s1` [Example 193, 5-Chloro-thiophene-2-carboxylic acid [3-(4-pyridin-4-yl-phenyl)-isoxazol-5-ylmethyl]-amide], the IC50 was not above 100 nM.

`CN(C)Cc1ccccc1-c1ccc(C2=NOC(CNC(=O)c3ccc(Cl)s3)C2)cc1` (stereo not shown) [Example 194, 5-Chloro-thiophene-2-carboxylic acid [3-(2′-dimethylaminomethyl-biphenyl-4-yl)-4,5-dihydro-isoxazol-5-ylmethyl]-amide] returned a 50% inhibitory concentration (IC50) not above 100 nM.

The molecule `O=C(NCC1CC(c2ccc(-c3ccccc3CN3CCCC3)cc2)=NO1)c1ccc(Cl)s1` (stereo not shown) [Example 195, 5-Chloro-thiophene-2-carboxylic acid [3-(2′-pyrrolidin-1-ylmethyl-biphenyl-4-yl)-4,5-dihydro-isoxazol-5-ylmethyl]-amide] gave an IC50 not above 100 nM.

On to `O=C(NCC1CC(c2ccc(-c3ccccc3CN3CCCCC3)cc2)=NO1)c1ccc(Cl)s1` (stereo not shown) [Example 196, 5-Chloro-thiophene-2-carboxylic acid [3-(2′-piperidin-1-ylmethyl-biphenyl-4-yl)-4,5-dihydro-isoxazol-5-ylmethyl]-amide], for which the IC50 was not above 100 nM.

With `O=C(NCC1CC(c2ccc(-c3ccccc3CN3CCOCC3)cc2)=NO1)c1ccc(Cl)s1` (stereo not shown) [Example 197, 5-Chloro-thiophene-2-carboxylic acid [3-(2′-morpholin-4-ylmethyl-biphenyl-4-yl)-4,5-dihydro-isoxazol-5-ylmethyl]-amide], the IC50 was not above 100 nM.

`COCCN(C)Cc1ccccc1-c1ccc(C2=NOC(CNC(=O)c3ccc(Cl)s3)C2)cc1` (stereo not shown) [Example 198, 5-Chloro-thiophene-2-carboxylic acid [3-(2′-{[(2-methoxy-ethyl)-methyl-amino]-methyl}-biphenyl-4-yl) 4,5-dihydro-isoxazol-5-ylmethyl]-amide] came in with an IC50 not above 100 nM.

`CN1CCN(Cc2ccccc2-c2ccc(C3=NOC(CNC(=O)c4ccc(Cl)s4)C3)cc2)CC1` (stereo not shown) [Example 199, 5-Chloro-thiophene-2-carboxylic acid {3-[2′-(4-methyl-piperazin-1-ylmethyl)-biphenyl-4-yl]-4,5-dihydro-isoxazol-5-ylmethyl}-amide] came in with an IC50 not above 100 nM.

Turning to `CN(C)CCN(C)Cc1ccccc1-c1ccc(C2=NOC(CNC(=O)c3ccc(Cl)s3)C2)cc1` (stereo not shown) [Example 200, 5-Chloro-thiophene-2-carboxylic acid [3-(2′-{[(2-dimethylamino-ethyl)-methyl-amino]-methyl}-biphenyl-4-yl)-4,5-dihydro-isoxazol-5-ylmethyl]-amide], the IC50 was not above 100 nM.

Regarding `O=C(NCC1CC(c2ccc(-c3ccccc3CN3CCCCCC3)cc2)=NO1)c1ccc(Cl)s1` (stereo not shown) [Example 201, 5-Chloro-thiophene-2-carboxylic acid [3-(2′-azepan-1-ylmethyl-biphenyl-4-yl)-4,5-dihydro-isoxazol-5-ylmethyl]-amide], the IC50 is not below 500 nM.

As to `COc1ccc(CN(C)C)c(-c2ccc(C3=NOC(CNC(=O)c4ccc(Cl)s4)C3)cc2)c1` (stereo not shown) [Example 202, 5-Chloro-thiophene-2-carboxylic acid [3-(2′-dimethylaminomethyl-5′-methoxy-biphenyl-4-yl)-4,5-dihydro-isoxazol-5-ylmethyl]-amide], the IC50 was not below 500 nM.

The molecule `COc1ccc(CN2CCCC2)c(-c2ccc(C3=NOC(CNC(=O)c4ccc(Cl)s4)C3)cc2)c1` (stereo not shown) [Example 203, 5-Chloro-thiophene-2-carboxylic acid [3-(5′-methoxy-2′-pyrrolidin-1-ylmethyl-biphenyl-4-yl)-4,5-dihydro-isoxazol-5-ylmethyl]-amide] showed an IC50 not above 100 nM.

`CN(C)Cc1ccc(Cl)cc1-c1ccc(C2=NOC(CNC(=O)c3ccc(Cl)s3)C2)cc1` (stereo not shown) [Example 204, 5-Chloro-thiophene-2-carboxylic acid [3-(5′-chloro-2′-dimethylaminomethyl-biphenyl-4-yl)-4,5-dihydro-isoxazol-5-ylmethyl]-amide] had an IC50 not above 100 nM.

With `O=C(NCC1CC(c2ccc(-c3cc(Cl)ccc3CN3CCCC3)cc2)=NO1)c1ccc(Cl)s1` (stereo not shown) [Example 205, 5-Chloro-thiophene-2-carboxylic acid [3-(5′-chloro-2′-pyrrolidin-1-ylmethyl-biphenyl-4-yl)-4,5-dihydro-isoxazol-5-ylmethyl]-amide], the IC50 was not above 100 nM.

`COCCN(C)Cc1ccc(Cl)cc1-c1ccc(C2=NOC(CNC(=O)c3ccc(Cl)s3)C2)cc1` (stereo not shown) [Example 206, 5-Chloro-thiophene-2-carboxylic acid [3-(5′-chloro-2′-{[(2-methoxy-ethyl)-methyl-amino]-methyl}-biphenyl-4-yl)-4,5-dihydro-isoxazol-5-ylmethyl]-amide]: the IC50 lay within 100 to 500 nM.

Regarding `COc1ccc(-c2ccc(C3=NOC(CNC(=O)c4ccc(Cl)s4)C3)cc2)c(CO)c1` (stereo not shown) [Example 207, 5-Chloro-thiophene-2-carboxylic acid [3-(2′-hydroxymethyl-4′-methoxy-biphenyl-4-yl)-4,5-dihydro-isoxazol-5-ylmethyl]-amide], the IC50 is not below 500 nM.

Take `O=Cc1ccccc1-c1ccc(-c2cc(CNC(=O)c3ccc(Cl)s3)on2)cc1` [Example 208, 5-Chloro-thiophene-2-carboxylic acid [3-(2′-formyl-biphenyl-4-yl)-isoxazol-5-ylmethyl]-amide]: the IC50 is not above 100 nM.

For `CN(C)Cc1ccccc1-c1ccc(-c2cc(CNC(=O)c3ccc(Cl)s3)on2)cc1` [Example 209, 5-Chloro-thiophene-2-carboxylic acid [3-(2′-dimethylaminomethyl-biphenyl-4-yl)-isoxazol-5-ylmethyl]-amide], the IC50 was not above 100 nM.

Consider `O=C(NCc1cc(-c2ccc(-c3ccccc3CN3CCCC3)cc2)no1)c1ccc(Cl)s1` [Example 210, 5-Chloro-thiophene-2-carboxylic acid [3-(2′-pyrrolidin-1-ylmethyl-biphenyl-4-yl)-isoxazol-5-ylmethyl]-amide], for which the IC50 was in the range of 100 to 500 nM.

`CN(C)Cc1cccc(-c2ccc(-c3cc(CNC(=O)c4ccc(Cl)s4)on3)cc2)c1` [Example 211, 5-Chloro-thiophene-2-carboxylic acid [3-(3′-dimethylaminomethyl-biphenyl-4-yl)-isoxazol-5-ylmethyl]-amide] returned an IC50 of 100 to 500 nM.

For the molecule `O=C(NCc1cc(-c2ccc(-c3cccc(CN4CCCC4)c3)cc2)no1)c1ccc(Cl)s1` [Example 212, 5-Chloro-thiophene-2-carboxylic acid [3-(3′-pyrrolidin-1-ylmethyl-biphenyl-4-yl)-isoxazol-5-ylmethyl]-amide], the IC50 is not below 500 nM.

For `CN(C)Cc1ccc(-c2ccc(-c3cc(CNC(=O)c4ccc(Cl)s4)on3)cc2)cc1` [Example 213, 5-Chloro-thiophene-2-carboxylic acid [3-(4′-dimethylaminomethyl-biphenyl-4-yl)-isoxazol-5-ylmethyl]-amide], the IC50 was not below 500 nM.

For the molecule `O=C(NCc1cc(-c2ccc(-c3ccc(CN4CCCC4)cc3)cc2)no1)c1ccc(Cl)s1` [Example 214, 5-Chloro-thiophene-2-carboxylic acid [3-(4′-pyrrolidin-1-ylmethyl-biphenyl-4-yl)-isoxazol-5-ylmethyl]-amide], the IC50 is not below 500 nM.
